The source of these data is patent US20070275935A1, “Estratriene Derivatives” (priority 2003, published 2007).

Read-outs that look alike come from different tables or passages of the source.

Assay [1] deals with Human airway smooth muscle (HASM) cells. As to the kind of experiment: Thrombin-induced proliferation of human airway smooth muscle (HASM) cells, cell number after 48 h. The conditions noted are these: for IC50: Homo sapiens, read-out: HASM-Thr pIC50 (converted); for HASM- Thr pIC25 / HASM- Thr pIC75: two site model, thrombin-induced proliferation; for HASM- Thr pIC25: first phase (inhibition up to 50%); for HASM- Thr pIC75: second phase (inhibition up to 100%). The format is cell-based. Here is the method: Human airway smooth muscle (HASM) cells were cultured from macroscopically normal bronchi (0.5-2 cm diameter) obtained from lung resection or heart-lung transplant specimens provided by the Alfred Hospital (Melbourne) according to methods published in detail previously (Fernandes et al., 1999).
Approximately 0.1 g of smooth muscle was stripped from the wall of the bronchus for each cell culture. Dissected tissue was immersed in Dulbecco's modified Eagle's medium (DMEM) (Flow Laboratories, Scotland), supplemented with 100 U/mL penicillin G (CSL, Australia) and 100 ug/mL streptomycin (CSL, Australia). The tissue was rinsed in phosphate buffered saline (PBS; Oxoid, England) and the airway smooth muscle was chopped into 2 mm^3 pieces and digested for 2 hours in DMEM containing elastase (0.5 mg/mL: Worthington Biochemical, USA) followed by a 12 hour incubation in DMEM containing collagenase (1 mg/mL) (Worthington Biochemical, USA), at 37° C. with agitation.
The resulting cell suspension was centrifuged and washed three times in phosphate buffered saline (PBS). Following the last centrifugation step, the cells were resuspended in 25 mL of DMEM supplemented with L-glutamine (2 mM: Sigma, USA), penicillin G (100 U/mL), streptomycin (100 μg/mL), amphotericin B (2 μg/mL: Wellcome, UK) and heat-inactivated FCS (10% v/v: CSL, Australia) and seeded into 25 cm^2 culture flasks. The primary isolates were incubated for 7 to 14 days to reach confluence.
Cells were harvested weekly by 10 min exposure to trypsin (0.5%: CSL, Australia) and EDTA (1 mM in PBS: BDH, Australia) and passaged at a 1:3 ratio into 75 cm^2 flasks.
The activity of the compounds has been established in cell culture by exploring their effects on mitogen-induced increases in cell number. We investigated the effects of 2MEO and its analogues, 4NO and 4NOM, on the proliferation of HASM cells in response to the proliferative stimulus of either thrombin of basic fibroblast growth factor (bFGF). Cells were seeded onto 6-well plates at a density of 1.5×10^4 cells cm^2, made quiescent by removal of serum-containing media for 24 hours and then stimulated for 48 h with either thrombin (0.3 U/ml) or bFGF (300 pM). The test compounds were pre-incubated with HASM cells for 30 minutes before the addition of thrombin. At the end of the 48 hour incubation period, cells were detached from the culture plate by trypsin (0.5% w/v in PBS containing 1 mM EDTA), incubated for 5 minutes at ambient temperature in PBS containing 0.5% (w/v) trypan blue, washed twice (2% FCS in PBS), isolated by centrifugation (12,000×g, 5 min) and resuspended in 200 μl 2% FCS in PBS for counting in a haemocytometer chamber.
Data are expressed as a percentage of the cell number in vehicle treated wells and are presented as the mean and standard error of the mean.
The potency of the compounds in regulating thrombin-induced proliferation of human airway smooth muscle (HASM) was assessed in cells maintained in culture as described above. The potencies are presented as pIC50 values (Column A of Table 4) denoting the negative log of the concentration that reduces the proliferative response by 50%. […] When the single phase model was determined to be more appropriate, the values of pIC25 and pIC75 were not calculated or shown in the table.

The next assay has as its target T1, Estrogen Receptor (ER) (Rattus norvegicus, UniProt P06211).
T1 construct: using rat uterine cytosol as a source of ER; from tissue; host or cells: rat uterus, cytosol fraction (30000 x g supernatant)
T1 sequence (P06211 1-600): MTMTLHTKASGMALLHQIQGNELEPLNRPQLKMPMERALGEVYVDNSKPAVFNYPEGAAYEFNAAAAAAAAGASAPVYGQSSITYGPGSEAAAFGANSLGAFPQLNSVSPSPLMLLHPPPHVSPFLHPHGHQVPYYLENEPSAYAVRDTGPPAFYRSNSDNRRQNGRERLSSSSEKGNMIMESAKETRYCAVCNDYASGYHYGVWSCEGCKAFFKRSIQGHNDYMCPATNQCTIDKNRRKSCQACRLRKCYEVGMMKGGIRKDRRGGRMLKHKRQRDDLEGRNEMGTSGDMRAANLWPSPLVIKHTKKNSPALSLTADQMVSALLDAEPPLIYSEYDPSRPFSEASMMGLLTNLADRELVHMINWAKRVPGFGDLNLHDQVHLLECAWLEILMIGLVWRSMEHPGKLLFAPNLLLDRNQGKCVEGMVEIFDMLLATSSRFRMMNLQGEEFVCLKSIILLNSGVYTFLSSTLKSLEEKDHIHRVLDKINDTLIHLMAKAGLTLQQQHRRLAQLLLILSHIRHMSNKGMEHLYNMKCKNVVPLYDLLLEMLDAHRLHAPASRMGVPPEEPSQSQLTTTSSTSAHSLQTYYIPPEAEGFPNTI
As to the kind of experiment: Estrogen receptor binding assay, 3H-estradiol displacement from rat uterine cytosol. The conditions noted are these: 3H-estradiol displacement, cytosolic preparations of rat uterus; pIC50 of 4.00 = inactive; read-out: ER-RLB pIC50 (converted). Here is the method:
Uteri (6-10 per batch) were isolated from Brown Norway rats (250-350g), washed free from blood in saline and homogenised in 10 mM Tris buffer (pH 7.4, 1.5 mM EDTA, 10% w/v glycerol, 1 mM phenylmethylsulfonylfluoride) using an Ultra Turrax homogeniser for 3 by 15 s bursts with intervals of 1 min on ice.
Nuclear material and cellular debris were removed by centrifugation at 750×g at 4° C. for 10 min (Sorvall RT7); the cytosol component was prepared by centrifugation at 30000×g for 120 min at 4° C. in a Beckman JM1 centrifuge. The cytosol was diluted to approximately 1 mg/ml protein (rat uterine extract) determined using the Bradford method (Biorad).
Separation of bound from free radioligand was achieved by the addition of 500 μL of dextran-coated charcoal (400 mg dextran clinical grade C and 2g of charcoal, Norit A in 100 mL of Tris buffer) and centrifugation at 4° C. in a Sorval RT7 at 2000×g for 10 min.

Assay [2] deals with human breast tumour cell line, MCF7. Put plainly: Proliferation of MCF7 cells in response to 5% FCS or EGF. Type of assay: cell-based. Particulars: Homo sapiens, MCF7; proliferation in response to 5% FCS; pIC50 of 4.00 = inactive. The procedure:
(§1) The effects of 4NO were evaluated in a number of non-smooth muscle cell types including the type II airway epithelial cell line, A549 (ATCC accession number ATCC CCL-185 Lung carcinoma human) (FIG. 2); the human breast tumour cell line, MCF7, (ATTC accession number ATCC HTB-22 breast adenocarcinoma, human) which expresses the estrogen receptor (FIG. 3); and in bovine aortic endothelial cells (BAEC) (FIG. 4).
(§2) The effects of test compounds were examined on proliferation of A549 cells in response to 5% fetal calf serum (FCS). Analogues were pre-incubated with A549 cells for 30 min before the addition of FCS. The incubation continued for 48 h before cell enumeration. Data are expressed as a percentage of the cell number in vehicle treated wells and are presented as the mean and standard error of the mean. Similarly the effects of 2MEO and 4NO on proliferation of MCF7 in response to 5% FCS or epidermal growth factor (EGF, 300 pM) were examined, as were the effects of 2MEO and 4NO on proliferation of BAEC in response to 5% FCS. The incubation parameters were the same as described above and results are presented as the mean and standard error of the mean.
(§3) This assay was also used to evaluate the ability of other compounds to inhibit the proliferation of non-smooth muscle cells MCF7 and A549 (described above) in response to 5% FCS. The results of this assay are presented in Table 4 (columns G and H respectively). The potency of the compounds was considerably less in inhibiting proliferation of these cell lines than it was for HASM. These observations support the contention that there are cell type-specific targets for the actions of these compounds. Such assays may also be adopted to examine the effect of other disclosed compounds on these cells or on other non-smooth muscle cells of interest.

The next assay concerns Pulmonary fibroblasts. As to the kind of experiment: bFGF-induced proliferation of human pulmonary fibroblasts. Type of assay: cell-based. Particulars: inhibition of bFGF (300 pM)-induced proliferation, mean and SEM, minimum 3 experiments; 1 μM; * not defined. The procedure: Samples of parenchyma from human lung transplant recipients were dissected away from the pleura, chopped into fragments of less than 1 mm^2 and allowed to adhere to plastic culture dishes in a minimal volume of DMEM containing serum (10%) and antibiotics (as used for HASM culture). After the tissue fragments had adhered to the base of the dish additional medium was added. Medium was changed twice weekly until an explant culture formed, at which time the tissue fragments were removed and the cells were passaged in a 1:3 split ratio by exposure to trypsin weekly to produce pulmonary fibroblast cultures.
Pulmonary fibroblasts were cultured in DMEM, serum-deprived for 24 h, in the presence or absence of the test compounds, and then stimulated with 300 pM bFGF for 48 h before harvest and counting of viable cells. An increase pulmonary fibroblast cell number was prevented by 4NOM over the concentration range of 1 to 1000 nM.
A range of the disclosed compounds was subsequently examined using the above assay system, and the results are summarized in Column E of Table 4. […] The proliferation of parenchymal fibroblasts is important in the development of pulmonary fibrosis.

In assay [3] the test system is type II airway epithelial cell line, A549. As to the kind of experiment: Proliferation of A549 cells in response to 5% FCS. The format is cell-based, human. Particulars: Homo sapiens. Here is the method: as §1, §2, §3
Assay [4] deals with GM-CSF production by Human Airway Smooth Muscle Cells. Put plainly: Interleukin-1α-mediated GM-CSF production by HASM cells (ELISA). The format is cell-based. Particulars: inhibition of interleukin-1α (1 ng/ml)-mediated GM-CSF production; concentration not given; * not defined.
Setting [5] is: negative log of the concentration that reduces the thrombin-induced proliferative response by 50%, pIC50 of 4.00 = inactive.
Where [6] appears, read: A549, proliferation in response to 5% FCS, pIC50 of 4.00 = inactive, read-out: A549 PIC50 (converted).

Take `C[C@]12CC[C@@H]3c4ccc(O)cc4CC[C@H]3[C@@H]1CC/C2=N\OCc1ccc([N+](=O)[O-])cc1` [CP-DM-3-101, estrone-17-(4-nitrobenzyl)oxime]: the IC50 in assay [1] (setting [5]) was 1910 nM; on Estrogen Receptor (ER), 2.4 µM; in assay [2], 12.6 µM. Further, in assay [1], the “HASM- Thr pIC25” value is 6.27. Besides, the “HASM- Thr pIC75” value in assay [1] came out at 5.06.

Consider `COc1cc2c(cc1O)CC[C@@H]1[C@@H]2CC[C@]2(C)/C(=N/OCc3cccc([N+](=O)[O-])c3)CC[C@@H]12` [CP-DM-3-104, 2-methoxyestrone-17-(3-nitrobenzyl)oxime], for which, in assay [1] (setting [5]), the IC50 was 550 nM. In assay [1], the “HASM- Thr pIC25” value was 7.16 and the “HASM- Thr pIC75” value is recorded as 5.02. Moreover, the IC50 in assay [2] is 8.51 µM.

In the case of `COc1cc2c(cc1O)/C(=N/Nc1ccc([N+](=O)[O-])cc1[N+](=O)[O-])C[C@@H]1[C@@H]2CC[C@]2(C)/C(=N/O)CC[C@@H]12` [CP-DM-3-119, 2-methoxy-6-(2,4-dinitrophenylhydrazono)estrone-17-oxime], the IC50 in assay [1] was 3310 nM; in assay [3] (A549, read-out: A549 PIC50), 15.8 µM. In addition, the “pFib - bFGF” value in the assay on Pulmonary fibroblasts is recorded as 17 ± 14.

As for `COc1ccc(CO/N=C2\C[C@@H]3[C@H](CC[C@]4(C)/C(=N/O)CC[C@@H]34)c3cc(OC)c(O)cc32)cc1` [CP-DM-4-6, 2-methoxy-6-(4-methoxybenzyloxy)-iminoestrone-17-oxime], the IC50 in assay [1] (setting [5]) was 117 nM; at Estrogen Receptor (ER), 45.7 µM; in assay [2] it was 2.29 µM; in assay [3] (setting [6]), 7.76 µM. For the same molecule, the “HASM- Thr pIC25” value in assay [1] was determined as 9.57. The “HASM- Thr pIC75” value in assay [1] amounted to 4.94. In assay [4], the “HASM - GM-CSF” value is given as 28 ± 10*.

For the molecule `COc1cc2c(cc1O)/C(=N/OCc1ccncc1)C[C@@H]1[C@@H]2CC[C@]2(C)/C(=N/O)CC[C@@H]12` [CP-DM-4-15, 2-methoxy-6-(4-pyridylmethyloxy)iminoestrone-17-oxime], the values for the IC50 (in assay [1] (setting [5]); on Estrogen Receptor (ER); in assay [2]) were 3390 nM, 12.6 µM and 10 µM, respectively. Moreover, the “HASM - GM-CSF” value in assay [4] is given as 34 ± 11*.

As to `COc1ccc(CO/N=C2\CC[C@H]3[C@@H]4CCc5cc(O)ccc5[C@H]4CC[C@]23C)cc1` [CP-DM-4-33, estrone-17-(4-methoxybenzyl)oxime], the IC50 in assay [1] (setting [5]) is 1350 nM; on Estrogen Receptor (ER), 0.11 µM; in assay [2], 3.16 µM; in assay [3] (setting [6]), 9.12 µM. Further, the “HASM- Thr pIC25” value in assay [1] came out at 7.12. Also, in assay [1], the “HASM- Thr pIC75” value came out at 5.03.

Take `COc1cc2c(cc1O)/C(=N/OCc1ccc(C#N)cc1)C[C@@H]1[C@@H]2CC[C@]2(C)/C(=N/O)CC[C@@H]12` [CP-DM-4-38, 6-(4-cyanobenzyloxy)imino-2-methoxyestrone-17-oxime]: in assay [1], the “HASM- Thr pIC25” value was 4.00 and the “HASM- Thr pIC75” value worked out at 4.00. Further, in the assay on Pulmonary fibroblasts, the “pFib - bFGF” value was determined as 26 ± 26.

For `COc1cc2c(cc1O)/C(=N/OCc1ccc(SC(F)(F)F)cc1)C[C@@H]1[C@@H]2CC[C@]2(C)/C(=N/O)CC[C@@H]12` [CP-DM-4-69, 2-methoxy-6-(4-trifluoromethylthiobenzyloxy)iminoestrone-17-oxime], in assay [1], the “HASM- Thr pIC25” value is recorded as 4.00 and the “HASM- Thr pIC75” value worked out at 4.00. Moreover, in the assay on Pulmonary fibroblasts, the “pFib - bFGF” value was 87 ± 13*.
